# Laboratory results as given in patent US7217815B2, “2-beta -modified-6-substituted adenosine analogs and their use as antiviral agents” (Valeant Pharmaceuticals North America, priority 2002, dated 2007).
# Key:
# [1] = system: HCV replicon RNA in replicon cells (Huh-7); assay: HCV replicon assay; assay type: cell-based; details: Huh-7 replicon cells, 3 days incubation, reduction of HCV RNA (Quantigene)
# Description: The replicon cells (Huh-7) contain replicating HCV replicon RNA, which was modified in the structural region (replacing the structural region with a neomycin resistance marker). Survival of the replicon cells under G418 selection relies on the replication of HCV RNA and subsequently expression of neomycin phosphoryltransferase. The ability of modified nucleoside libraries and compounds to suppress HCV RNA replication was determined using the Quantigene Assay Kit from Bayer. The assay measures the reduction of HCV RNA molecules in the treated cells. Replicon cells were incubated at 37° C. for 3 days in the presence of nucleoside libraries and compounds before harvested for detection. HCV subgenomic replicon cell line was provided by Dr. Bartenschlager. The assay protocol was modified based on literature procedure (V. Lohmann, F. Korner, J. O. Koch, U. Herian, L. Theilmann, R. Bartenschlager, Science, 1999, 285, 110–113).
# [2] = system: Bovine viral diarrhea virus (BVDV) (strain NADL); assay: Assay for inhibition of BVDV; assay type: cell-based; details: MDBK cells
# Description: Bovine viral diarrhea virus (BVDV) (strain NADL) was provided by Dr. Ruben Donis and propagated in MDBK cells (ATCC). The nucleoside libraries and compounds were tested utilizing the modified protocol (V. B. Vassilev, M. S. Collett, R. O. Donis, J. Viol. 1997, 71, 471–478; S. G. Bagginski, D. C. Pevear, M. Seipel, S. C. C. Sun, C. A. Benetatos, S. K. Chunduru, C. M. Rice, M. S. Collett, Proc. Natl. Acad. Sci. U.S.A. 2000, 97, 7981–7986)
Compound,EC50 [1] [µM],EC50 [2] [µM],"EC50 ([1]; Hepatitis C virus, 72 h) [µM]",EC50 ([2]; Bovine viral diarrhea virus isolates and strains) [µM]
"CSc1cccc(Nc2ncnc3c2ncn3[C@@H]2O[C@H](CO)[C@@H](O)[C@@]2(C)O)c1 [Compound S1-4, N^6-[3-(Methylthio)phenyl]-9H-(2′-β-C-methyl-β-D-ribofuranosyl)adenine]",> 100,> 100,–,–
"C[C@@]1(O)[C@H](O)[C@@H](CO)O[C@H]1n1cnc2c(NC[C@H]3CCCO3)ncnc21 [Compound S1-6, N^6-(R-Tetrahydrofurfuryl)-9H-(2′-β-C-methyl-β-D-ribofuranosyl)adenine]",> 100,> 100,–,–
"CCOc1ccccc1CNc1ncnc2c1ncn2[C@@H]1O[C@H](CO)[C@@H](O)[C@@]1(C)O [Compound S1-7, N^6-(2-Ethoxybenzyl)-9H-(2′-β-C-methyl-β-D-ribofuranosyl)adenine]",10 to 100,> 100,–,–
"CC1(C)OCC(CNc2ncnc3c2ncn3[C@@H]2O[C@H](CO)[C@@H](O)[C@@]2(C)O)O1 (stereo partly drawn) [Compound S1-8, N^6-(2,2-Dimethyl-1,3-dioxolane-4-methyl)-9H-(2′-β-C-methyl-β-D-ribofuranosyl)adenine]",> 100,> 100,–,–
"C[C@@]1(O)[C@H](O)[C@@H](CO)O[C@H]1n1cnc2c(NCCO)ncnc21 [Compound S1-9, N^6-[2-(Hydroxy)ethyl]-9H-(2′-β-C-methyl-β-D-ribofuranosyl)adenine]",10 to 100,> 100,–,–
"C[C@@]1(O)[C@H](O)[C@@H](CO)O[C@H]1n1cnc2c(NN)ncnc21 [Compound S1-11, 6-(Hydrazinyl)-9H-(2′-β-C-methyl-β-D-ribofuranosyl)purine]",< 10,25 to 100,–,–
"CN(C)Nc1ncnc2c1ncn2[C@@H]1O[C@H](CO)[C@@H](O)[C@@]1(C)O [Compound S1-12, 6-(N,N-Dimethylhydrazino)-9H-(2′-β-C-methyl-β-D-ribofuranosyl)purine]",< 10,< 25,–,–
"C[C@@]1(O)[C@H](O)[C@@H](CO)O[C@H]1n1cnc2c(N(N)CCO)ncnc21 [Compound S1-13, 6-[N^1-(Hydroxyethyl)hydrazino]-9H-(2′-β-C-methyl-β-D-ribofuranosyl)purine]",< 10,> 100,–,–
"C[C@@]1(O)[C@H](O)[C@@H](CO)O[C@H]1n1cnc2c(NNC=O)ncnc21 [Compound S1-14, 6-[(N^2-formyl)hydrazino]-9H-(2′-β-C-methyl-β-D-ribofuranosyl)purine]",10 to 100,> 100,–,–
"CN(N)c1ncnc2c1ncn2[C@@H]1O[C@H](CO)[C@@H](O)[C@@]1(C)O [Compound S1-15, 6-(N^1-methylhydrazino)-9H-(2′-β-C-methyl-β-D-ribofuranosyl)purine]",< 10,> 100,–,–
COC(=O)NNc1ncnc2c1ncn2[C@@H]1O[C@H](CO)[C@@H](O)[C@@]1(C)O [Compound S1-16],< 10,25 to 100,–,–
"CC(=O)NNc1ncnc2c1ncn2[C@@H]1O[C@H](CO)[C@@H](O)[C@@]1(C)O [Compound S1-17, 6-[N^2-(Acetyl)hydrazino]-9H-(2′-β-C-methyl-β-D-ribofuranosyl)purine]",< 10,< 25,–,–
C[C@@]1(O)[C@H](O)[C@@H](CO)O[C@H]1n1cnc2c(NNS(C)(=O)=O)ncnc21 [Compound S1-18],< 10,25 to 100,–,–
"C[C@@]1(O)[C@H](O)[C@@H](CO)O[C@H]1n1cnc2c(NO)ncnc21 [Compound S1-19, 6-Hydroxyamino-9H-(2′-β-C-methyl-β-D-ribofuranosyl)purine]",< 10,25 to 100,–,–
"CON(C)c1ncnc2c1ncn2[C@@H]1O[C@H](CO)[C@@H](O)[C@@]1(C)O [Compound S1-20, 6-(N,O-Dimethylhydroxylamine)-9H-(2′-β-C-methyl-β-D-ribofuranosyl)purine]",10 to 100,> 100,–,–
"CC(C)(C)OC(=O)NOc1ncnc2c1ncn2[C@@H]1O[C@H](CO)[C@@H](O)[C@@]1(C)O [Compound S1-21, 6-(N-(t-Butyloxycarbonyl)aminoxy]-9H-(2′-β-C-methyl-β-D-ribofuranosyl)purine]",< 10,> 100,–,–
"C[C@@]1(O)[C@H](O)[C@@H](CO)O[C@H]1n1cnc2c(ONC(=O)OCc3ccccc3)ncnc21 [Compound S1-22, 6-[(N-Benzyloxycarbonyl)aminoxy]-9H-(2′-β-C-methyl-β-D-ribofuranosyl)purine]",< 10,> 100,–,–
"C[C@@]1(O)[C@H](O)[C@@H](CO)O[C@H]1n1cnc2c(NCCN)ncnc21 [Compound S2-1, N^6-(2-Aminoethyl)-9H-(2′-β-C-methyl-β-D-ribofuranosyl)adenine]",< 10,25 to 100,–,–
"C[C@@]1(O)[C@H](O)[C@@H](CO)O[C@H]1n1cnc2c(NCCNc3ncnc4c3ncn4[C@@H]3O[C@H](CO)[C@@H](O)[C@@]3(C)O)ncnc21 [Compound S2-2, N,N′-Bis[N^6-9H-(2′-β-C-methyl-β-D-ribofuranosyl)adenin-6-yl]ethylenediamine]",–,–,10 to 100,> 100
N^6-(2-Phenylpropyl)-9H-(2′-β-C-methyl-β-D-ribofuranosyl)adenine [Compound S1-5],> 100,> 100,–,–
